Experimental data published in patent publication US10369145B2, “Coumarin derivatives and methods of use in treating hyperproliferative diseases” (DISCOVERYBIOMED, INC., priority 2013, dated 2019).

Experiments:
[1] = system: HOP-92; test: NCI 60 panel: HOP-92 (Non-Small Cell Lung Cancer); format: cell-based
From the text: (§3) TGI means the drug concentration resulting in total growth inhibition or “cytostasis.” LC50 is the concentration of drug resulting in a 50% reduction in the measured cytosolic ATP at the end of the drug treatment as compared to that at the beginning, indicating a net loss of cells following treatment (cytotoxicity).

[2] = system: SK-MEL-28; test: NCI 60 panel: SK-MEL-28 (Melanoma); format: cell-based
From the text: as §3

[3] = system: NCI-H522; test: NCI 60 panel: NCI-H522 (Non-Small Cell Lung Cancer); format: cell-based
From the text: as §3

[4] = system: COLO 205; test: NCI 60 panel: COLO 205 (Colon Cancer); format: cell-based
From the text: as §3

[5] = system: HCT-15; test: NCI 60 panel: HCT-15 (Colon Cancer); format: cell-based
From the text: as §3

[6] = system: SF-295; test: NCI 60 panel: SF-295 (CNS Cancer); format: cell-based
From the text: as §3

[7] = system: NCI-60 cell panel; test: NCI-60 cell panel, whole panel; format: cell-based, human; settings: average in the NCI-60 cell panel
[8] = system: primary human ADPKD cystic epithelial cell lines, ARCaP-M, CAKI-1; test: Viability in cystic ADPKD cells, prostate and kidney cancer lines; format: cell-based
Protocol: (§1) The compounds described herein are effective for inhibiting cellular proliferation in hyperproliferative cell types. To study the effects of these compounds, an assay was developed to differentiate the effects of the compounds on proliferating versus confluent cells. The assay design generates a proliferating density 24 hours after seeding and provides a 3-day active cell growth/doubling window in which to gauge the anti-proliferative effect of the compounds described herein. […] In this 3-day growth window, cell number increases with daily doublings across the 72-hour period (see FIG. 1).
(§2) In each assay design, compounds were added at the 24-hour timepoint after cell seeding. The effect of the compounds, relative to vehicle control and to VelCade (a proteasome inhibitor approved in the U.S. for treating relapsed multiple myeloma and mantle cell lymphoma) as a positive control, was assessed across the 3-day growth window for proliferating cells and on an already near confluent culture of cells for the same time period. Normal cells were handled in the same manner, with some adjustment of seeding density needed in select cases. This assay design holds for the data series presented below.
Cell number at the end of the assay was determined using the CELLTITER-GLO Luminescent Cell Viability Assay (Promega; Madison, Wis.). The CELLTITER-GLO Luminescent Cell Viability Assay is a homogeneous method of determining the number of viable cells in culture based on quantitation of the ATP present, an indicator of metabolically active cells. IC50 values were calculated. Cell number (number of cells per well) was converted to the % of DMSO matched controls. Each measurement was performed in triplicate. Typical dosage ranges tested were from 250 picomolar to 50 micromolar.
The compounds as described herein were tested on primary human ADPKD cystic epithelial cell lines as well as two common cancer cell lines from the prostate (ARCaP-M) and kidney (CAKI-1).

[9] = system: SK-OV-3; test: Complementary DBM in vitro profiling: SK-OV-3 (Ovarian Cancer); format: cell-based
Protocol: as §1
as §2, with “This assay design holds for the data series presented below.” left out
Cell number at the end of the assay was determined using the CELLTITER-GLO Luminescent Cell Viability Assay (Promega; Madison, Wis.). The CELLTITER-GLO Luminescent Cell Viability Assay is a homogeneous method of determining the number of viable cells in culture based on quantitation of the ATP present, an indicator of metabolically active cells. IC50 values were calculated. […]
For a typical screening experiment to identify the compounds, cells were seeded into 96- or 384-well microtiter plates at plating densities pre-determined for each cell line to ensure drug exposure occurs during the proliferative phase well before confluency is reached. […] Values were calculated for each of these three parameters if the level of activity was reached; however, if the effect was not reached or was exceeded, the value for that parameter was expressed as greater or less than the maximum or minimum concentration tested.

[10] = system: IGROV1; test: NCI 60 panel: IGROV1 (Ovarian Cancer); format: cell-based
From the text: as §3

[11] = system: MOLT-4; test: NCI 60 panel: MOLT-4 (Leukemia); format: cell-based
From the text: as §3

[12] = system: DU-145; test: NCI 60 panel: DU-145 (Prostate Cancer); format: cell-based
From the text: as §3

[13] = system: UO-31; test: NCI 60 panel: UO-31 (Renal Cancer); format: cell-based
From the text: as §3

[14] = system: M14; test: NCI 60 panel: M14 (Melanoma); format: cell-based
From the text: as §3

[15] = system: HOP-62; test: NCI 60 panel: HOP-62 (Non-Small Cell Lung Cancer); format: cell-based
From the text: as §3

[16] = system: SNB-19; test: NCI 60 panel: SNB-19 (CNS Cancer); format: cell-based
From the text: as §3

[17] = system: HL-60; test: NCI 60 panel: HL-60 (Leukemia); format: cell-based
From the text: as §3

[18] = system: CAKI-1; test: NCI 60 panel: CAKI-1 (Renal Cancer); format: cell-based
From the text: as §3

[19] = read-out: LC50 (the source's name)

COc1ccccc1Nc1nc(-c2cc3cccc(N)c3oc2=O)cs1 [Compound DBM 228]
GI50 [1]: 1450 nM
TGI [1]: 24700 nM
CC50 [1, 19]: > 100000 nM
GI50 [2]: 88.9 nM
TGI [2]: 31000 nM
CC50 [2, 19]: 99300 nM
GI50 [3]: 24.7 nM
TGI [3]: 94 nM
CC50 [3, 19]: > 100000 nM
GI50 [4]: 337 nM
TGI [4]: 1800 nM
CC50 [4, 19]: > 100000 nM
GI50 [5]: 128 nM
TGI [5]: 17300 nM
CC50 [5, 19]: > 100000 nM
GI50 [6]: 42.4 nM
TGI [6]: 1490 nM
CC50 [6, 19]: 41500 nM
GI50 [7]: 250 nM
effect on cells, in words ([8]; at and around the 1 micromolar dose): cytostatic plateau
effect on cells, in words ([8]; higher mid-micromolar concentrations): cytotoxic effect
effect on cells, in words ([8]; nanomolar ranges, 12-point CRC): growth arrested but not killed
GI50 [9]: 845 nM
TGI [9]: >30000 nM
CC50 [9, 19]: > 30000 nM
GI50 [10]: 1230 nM
TGI [10]: 23400 nM
CC50 [10, 19]: > 100000 nM
GI50 [11]: 168 nM
TGI [11]: 17800 nM
CC50 [11, 19]: > 100000 nM
GI50 [12]: 356 nM
TGI [12]: 5310 nM
CC50 [12, 19]: 41000 nM
GI50 [13]: 1460 nM
TGI [13]: 43000 nM
CC50 [13, 19]: > 100000 nM
GI50 [14]: 70.8 nM
CC50 [14, 19]: 49900 nM
GI50 [15]: 537 nM
TGI [15]: 44800 nM
CC50 [15, 19]: > 100000 nM
GI50 [16]: 182 nM
TGI [16]: 35000 nM
CC50 [16, 19]: > 100000 nM
GI50 [17]: 34 nM
TGI [17]: 137 nM
CC50 [17, 19]: 825 nM
GI50 [18]: 115 nM
TGI [18]: 27900 nM
CC50 [18, 19]: > 100000 nM
